These results are taken from ChEMBL document CHEMBL1132834, “Phenylpropenamide derivatives as inhibitors of hepatitis B virus replication” (Bioorg Med Chem Lett, 2000).

A value given as a limit tells only on which side of the number the result lay.

Series [1] deals with Human immunodeficiency virus 1. Briefly: Inhibition of HIV-1 replication by 50% (no effect at this concentration). Type of series: functional, organism-based.
The nature of series [2]: Inhibition of Duck HBV replication by 50% (no effect at this concentration). It is filed as functional, organism-based. The settings on record: Anas sp.
Series [3] can be described thus: Inhibition of Woodchuck HBV replication by 50% (no effect at this concentration). It is filed as functional, organism-based. As to conditions: Marmota monax.
Series [4] concerns Human alphaherpesvirus 1. Description: Inhibition of HSV-1 replication by 50% (no effect at this concentration). It is filed as functional, organism-based.
The nature of series [5]: Reduction of viable cell numbers by 50% was evaluated by HepAD38 cellular assay. Type of series: ADME, cell-based. The settings on record: human, HepAD38 cells; read-out: TC50 (the source's name).
Series [6] deals with Vesicular stomatitis virus. Briefly: Inhibition of Vesicular stomatis virus replication by 50% (no effect at this concentration). Type of series: functional, organism-based.
The test system of series [7] is Newcastle disease virus. Description: Inhibition of Newcastles disease virus replication by 50% (no effect at this concentration). Type of series: functional, organism-based. The settings on record: avian paramyxovirus 1.
Series [8] is described as follows: Inhibition of hepatitis B virus replication in the HepAD38 cell line. It is filed as functional, cell-based. As to conditions: Homo sapiens.
Series [9] in a line: Concentration which inhibits hepatitis B virus replication in the HepAD38 cell line. It is filed as functional. The settings on record: Homo sapiens.

Broadly, the EC50 is the midpoint of the concentration-response curve. On to `O=C(N/C(C(=O)N1CCCCC1)=C(/Cl)c1ccc(Cl)cc1)c1ccccc1`, for which the EC50 in series [1], in series [2], in series [3], in [4], in [6] and in [7] was over 81 µM each time. For the same compound, the CC50 in series [5] was found to be 45 µM.
Consider `O=C(N/C(C(=O)N1CCCCC1)=C(/Br)c1ccc(F)cc1)c1ccccc1`, for which the half-maximal effective concentration (EC50) was over 81 µM in series [1]; over 81 µM in series [2]; over 81 µM in series [3]; over 81 µM in [4]; 3900 nM in series [8]; over 81 µM in series [6]. In addition, the concentration for a half-maximal effect (EC50) in series [7] is over 81 µM. In addition, in series [5], the CC50 was over 70 µM.
As to `O=C(N/C(C(=O)N1CCCCC1)=C(/Cl)c1ccccc1F)c1ccccc1`, the concentration giving a half-maximal response (EC50) in series [1], in series [2], in series [3], in [4], in [6] and in series [7] was over 81 µM each time. Besides, the CC50 in series [5] was found to be 31 µM.
As usually defined, the EC90 is the concentration needed for an effect of 90%. With `Cc1ccc(C(=O)N/C(C(=O)N2CCCCC2)=C(/Br)c2ccccc2)cc1`, the EC50 was over 81 µM in [1]; over 81 µM in series [2]; over 81 µM in series [3]; over 81 µM in series [4]; 2100 nM in series [8]; over 81 µM in [6]. In addition, the half-maximal effective concentration (EC50) in [7] was over 81 µM. Besides, the concentration for an effect of 90% (EC90) in series [9] was found to be 12 µM. For the same compound, the CC50 in series [5] is over 70 µM.
`O=C(N/C(C(=O)N1CCCCC1)=C(/Br)c1ccccc1F)c1ccccc1`: the EC50 was over 81 µM in [1]; over 81 µM in series [2]; over 81 µM in [3]; over 81 µM in series [4]; 1500 nM in [8]; over 81 µM in [6]. This compound also gave an EC50 in series [7] of over 81 µM. The CC50 in series [5] amounted to 70 µM.
As to `COc1ccc(C(=O)N/C(C(=O)N2CCCCC2)=C(/Br)c2ccccc2)cc1`, the EC50 in series [1] was over 81 µM; in [2] it was over 81 µM; in series [3] it was over 81 µM; in series [4] it was over 81 µM; in series [8], 1900 nM; in [6], over 81 µM. In [7], the EC50 is over 81 µM. In series [9], this compound had an EC90 of 19 µM. Further, the CC50 in series [5] is over 67 µM.
For `O=C(N/C(C(=O)N1CCCCC1)=C(/Br)c1ccc(Cl)cc1)c1ccccc1`, the concentration for a half-maximal effect (EC50) in [1] is over 81 µM; in series [2], over 81 µM; in [3], over 81 µM; in series [4] it was over 81 µM; in [8], 11000 nM; in series [6] it was over 81 µM. In addition, the EC50 in series [7] is over 81 µM. In addition, the CC50 in series [5] was determined as 55 µM.
For the compound `O=C(N/C(C(=O)N1CCCCC1)=C(/Br)c1ccccc1)c1ccccc1`, the EC50 in [1] was over 81 µM; in series [2], over 81 µM; in [3], over 81 µM; in [4] it was over 81 µM; in [8], 1300 nM; in [6], over 81 µM. Moreover, in series [7], the EC50 was over 81 µM. Moreover, in series [9], the EC90 worked out at 21 µM. Besides, in series [5], the CC50 was over 72 µM.
Regarding `O=C(N/C(C(=O)N1CCCCC1)=C(/Cl)c1ccccc1)c1ccccc1`, the EC50 in [1] is over 81 µM; in series [2] it was over 81 µM; in [3], over 81 µM; in series [4] it was over 81 µM; in series [8], 1200 nM; in series [6], over 81 µM. In [7], this compound came in with a half-maximal effective concentration (EC50) of over 81 µM. In addition, the 90% effect concentration (EC90) in series [9] came out at 13 µM. The CC50 in [5] is over 81 µM.
As for `Cc1ccccc1/C(Br)=C(\NC(=O)c1ccccc1)C(=O)N1CCCCC1`, the concentration for a half-maximal effect (EC50) in series [1] was over 81 µM; in series [2] it was over 81 µM; in series [3] it was over 81 µM; in series [4], over 81 µM; in series [8], 890 nM; in series [6], over 81 µM. This compound had an EC50 in series [7] of over 81 µM. Moreover, the CC50 in series [5] is over 70 µM.
Take `O=C(N/C(C(=O)N1CCCCC1)=C(/Br)c1ccc(Cl)cc1)c1ccc([N+](=O)[O-])cc1`: the EC50 was over 81 µM in series [1]; over 81 µM in series [2]; over 81 µM in series [3]; over 81 µM in series [4]; 1600 nM in series [8]; over 81 µM in series [6]. For the same compound, the 50% effective concentration (EC50) in series [7] was over 81 µM. Further, in [5], the CC50 was over 60 µM.
In the case of `COc1ccccc1/C(Br)=C(\NC(=O)c1ccccc1)C(=O)N1CCCCC1`, the EC50 in series [1] was over 81 µM; in series [2], over 81 µM; in [3], over 81 µM; in series [4] it was over 81 µM; in series [8], 2100 nM; in [6], over 81 µM. The compound further returned an EC50 in series [7] of over 81 µM. The CC50 in [5] is over 70 µM.
Regarding `Cc1ccc(/C(Br)=C(\NC(=O)c2ccccc2)C(=O)N2CCCCC2)cc1`, the concentration for a half-maximal effect (EC50) is over 81 µM in [1]; over 81 µM in series [2]; over 81 µM in [3]; over 81 µM in series [4]; 2800 nM in series [8]; over 81 µM in series [6]. In series [7], this compound yielded a concentration for a half-maximal effect (EC50) of over 81 µM. The CC50 in series [5] is over 70 µM.
With `O=C(N/C(C(=O)N1CCCCC1)=C(/Br)c1ccccc1)c1ccc([N+](=O)[O-])cc1`, the concentration giving a half-maximal response (EC50) in series [1] is over 81 µM; in [2], over 81 µM; in series [3], over 81 µM; in [4], over 81 µM; in series [8], 350 nM; in series [6] it was over 81 µM. Further, in series [7], the EC50 was over 81 µM. This compound also returned an EC90 in series [9] of 3 µM. Also, the CC50 in series [5] is over 65 µM.
As for `COc1ccc(/C(Br)=C(\NC(=O)c2ccccc2)C(=O)N2CCCCC2)cc1`, the concentration for a half-maximal effect (EC50) was over 81 µM in series [1]; over 81 µM in series [2]; over 81 µM in series [3]; over 81 µM in series [4]; 13000 nM in series [8]; over 81 µM in series [6]. In series [7], this compound registered an EC50 of over 81 µM. The CC50 in [5] is over 67 µM.
On to `O=C(N/C(C(=O)N1CCCCC1)=C(/Br)c1ccc(F)cc1)c1ccc([N+](=O)[O-])cc1`, for which the concentration for a half-maximal effect (EC50) is over 81 µM in [1]; over 81 µM in series [2]; over 81 µM in series [3]; over 81 µM in series [4]; 720 nM in [8]; over 81 µM in [6]. The EC50 in series [7] was over 81 µM. The EC90 in [9] worked out at 11 µM. Further, the CC50 in series [5] was over 63 µM.
For `COc1ccc(C(=O)N/C(C(=O)N2CCCCC2)=C(/Cl)c2ccccc2)cc1`, the EC50 in [1] was over 81 µM; in [2] it was over 81 µM; in [3] it was over 81 µM; in [4], over 81 µM; in series [8] it was 5200 nM; in series [6], over 81 µM. For the same compound, the EC50 in series [7] is over 81 µM. Further, the CC50 in series [5] was over 75 µM.
With `COc1ccc(/C(Cl)=C(\NC(=O)c2ccccc2)C(=O)N2CCCCC2)cc1`, the concentration giving a half-maximal response (EC50) in [1] is over 81 µM; in series [2], over 81 µM; in series [3] it was over 81 µM; in series [4], over 81 µM; in [8], over 75000 nM; in [6], over 81 µM. The 50% effective concentration (EC50) in series [7] is over 81 µM. Also, in series [5], the CC50 is over 75 µM.
With `O=C(N/C(C(=O)N1CCCCC1)=C(/Cl)c1ccccc1)c1ccc(C(F)(F)F)cc1`, the concentration for a half-maximal effect (EC50) in [1] was over 81 µM; in [2], over 81 µM; in [3], over 81 µM; in [4], over 81 µM; in series [8], over 69000 nM; in [6], over 81 µM. In [7], this compound returned an EC50 of over 81 µM. The CC50 in [5] was over 69 µM.
